{
  "source": "patent US9011863B2",
  "about": "“Combinations of kinase inhibitors for the treatment of cancer” (Exelixis, Inc., priority 2010, dated 2015)",
  "key": {"[1]": {"target": "p110α catalytic subunit of PI3K (Homo sapiens, UniProt P42336)", "sequence (P42336 whole entry)": "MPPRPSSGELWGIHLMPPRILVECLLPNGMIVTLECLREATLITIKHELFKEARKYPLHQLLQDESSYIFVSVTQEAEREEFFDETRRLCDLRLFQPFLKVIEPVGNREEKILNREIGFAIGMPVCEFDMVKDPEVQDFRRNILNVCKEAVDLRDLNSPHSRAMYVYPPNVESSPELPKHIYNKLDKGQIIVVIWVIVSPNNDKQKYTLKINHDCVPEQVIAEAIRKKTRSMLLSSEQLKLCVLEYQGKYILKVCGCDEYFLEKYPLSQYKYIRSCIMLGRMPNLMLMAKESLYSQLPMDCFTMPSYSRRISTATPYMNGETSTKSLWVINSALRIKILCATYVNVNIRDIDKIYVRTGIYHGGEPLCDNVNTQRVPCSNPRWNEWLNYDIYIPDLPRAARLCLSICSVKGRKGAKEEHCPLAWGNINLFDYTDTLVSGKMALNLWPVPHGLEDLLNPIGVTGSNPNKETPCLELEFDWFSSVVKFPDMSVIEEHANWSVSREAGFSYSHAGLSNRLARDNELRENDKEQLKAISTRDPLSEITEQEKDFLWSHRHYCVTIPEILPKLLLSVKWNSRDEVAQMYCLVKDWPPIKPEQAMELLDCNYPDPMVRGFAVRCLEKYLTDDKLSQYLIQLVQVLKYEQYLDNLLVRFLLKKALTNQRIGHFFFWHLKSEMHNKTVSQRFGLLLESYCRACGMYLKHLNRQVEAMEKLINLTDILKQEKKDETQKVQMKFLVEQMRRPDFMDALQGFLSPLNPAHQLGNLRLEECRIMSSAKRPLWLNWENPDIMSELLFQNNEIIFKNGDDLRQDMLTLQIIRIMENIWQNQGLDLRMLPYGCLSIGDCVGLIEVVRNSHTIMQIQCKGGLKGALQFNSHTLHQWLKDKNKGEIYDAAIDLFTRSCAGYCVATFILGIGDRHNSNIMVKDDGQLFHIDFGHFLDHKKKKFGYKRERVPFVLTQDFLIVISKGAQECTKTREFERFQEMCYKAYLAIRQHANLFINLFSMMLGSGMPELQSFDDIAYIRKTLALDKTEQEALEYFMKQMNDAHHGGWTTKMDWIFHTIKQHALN", "sequence (P27986 whole entry partner)": "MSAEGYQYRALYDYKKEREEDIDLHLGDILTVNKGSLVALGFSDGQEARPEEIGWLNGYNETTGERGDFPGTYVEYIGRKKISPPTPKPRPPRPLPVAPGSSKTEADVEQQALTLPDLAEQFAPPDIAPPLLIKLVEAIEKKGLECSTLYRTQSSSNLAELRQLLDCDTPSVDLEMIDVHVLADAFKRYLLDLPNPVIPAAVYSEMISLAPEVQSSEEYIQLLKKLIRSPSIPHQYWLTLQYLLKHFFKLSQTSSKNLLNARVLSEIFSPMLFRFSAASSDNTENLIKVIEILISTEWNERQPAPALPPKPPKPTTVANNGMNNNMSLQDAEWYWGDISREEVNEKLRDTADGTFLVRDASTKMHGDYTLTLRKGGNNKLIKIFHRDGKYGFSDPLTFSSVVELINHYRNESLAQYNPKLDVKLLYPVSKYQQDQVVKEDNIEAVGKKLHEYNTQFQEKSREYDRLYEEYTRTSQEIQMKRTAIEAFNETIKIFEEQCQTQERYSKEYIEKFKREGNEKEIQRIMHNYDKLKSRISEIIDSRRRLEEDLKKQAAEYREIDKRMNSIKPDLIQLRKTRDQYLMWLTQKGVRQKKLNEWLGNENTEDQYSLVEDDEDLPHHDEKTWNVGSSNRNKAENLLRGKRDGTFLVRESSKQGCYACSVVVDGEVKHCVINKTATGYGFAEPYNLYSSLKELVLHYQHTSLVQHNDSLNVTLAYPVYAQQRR", "assay": "in vitro PI3K assay (PI3K-induced ATP consumption)", "type": "biochemical", "conditions": "read-out: in vitro IC50 against p110α", "excerpt": "Compounds of formula I have been tested using the assay described in Biological Example 1 of WO2007044729 and have been determined to be PI3K inhibitors. As such, compounds of formula I are useful for treating diseases, particularly cancer in which PI3K activity contributes to the pathology and/or symptomatology of the disease. For example, cancer in which PI3K activity contributes to its pathology and/or symptomatology include breast cancer, colon cancer, rectal cancer, endometrial cancer, gastric carcinoma, glioblastoma, hepatocellular carcinoma, small cell lung cancer, non-small cell lung cancer, melanoma, ovarian cancer, pancreatic cancer, prostate carcinoma, acute myelogenous leukemia (AML), chronic myelogenous leukemia (CML), and thyroid carcinoma, and the like.\nSuitable in vitro assays for measuring PI3K activity and the inhibition thereof by compounds are known. Typically, the assay will measure PI3K-induced ATP consumption. […] Cellular activity can be determined using assays as described in Biological Examples 2, 3, and 4 of WO2007044729. […]\nThe purpose of the present study is to identify kinases and kinase-regulated signaling pathways that compensate for PI3K inhibition in human breast cancer cells. […] Gene expression from three independent experiments was measured using the Gene titan 3′ microarray. *, p<0.05; **, p<0.01 versus 0 hours, as shown in FIG. 5. […]"}, "[2]": {"tested_on": "human breast cancer cell lines", "assay": "cell proliferation (cell counting) and crystal violet assays", "type": "cell-based", "experimental": "Cells were seeded in 12-well plates at a density of 2.5-3.5×10^4 cells/well in medium containing 2.5% FBS±inhibitors. Media and inhibitors were replaced every 3 days. On the days indicated in figures, cells were trypsinized and counted in a Beckman Coulter counter. For crystal violet assay, 5×10^4 cells/well were seeded in 6-well plates and grown in absence or presence of compound A for 6 days, fixed in methanol, stained with crystal violet, and photographed using an Olympus DP10 camera.\nA panel of breast cancer cell lines with dysregulated PI3K activity was treated with increasing doses of compound A under two- and three-dimensional (2D and 3D) growth conditions. All experiments were conducted in 2.5% FBS-containing media, unless otherwise stated. […] This was further confirmed by immunoblot analysis of biomarkers of cell death and G1-S cell cycle transition in lysates from cells treated for 24 hours with compound A as shown in FIG. 10B."}, "[3]": {"tested_on": "HCC1937 human breast cancer cells", "assay": "HCC1937 cell viability, alamar blue assay", "type": "cell-based", "conditions": "read-out: growth inhibition IC50", "experimental": "FIG. 1B. siRNA screen to identify kinases that potentially compensate for PI3K inhibition. HCC1937 cells were seeded in triplicate in a 96-well plate and treated with DMSO or the indicated concentration of compound A for 72 hours. Cell viability was measured by the alamar blue assay.\nThe purpose of the present study is to identify kinases and kinase-regulated signaling pathways that compensate for PI3K inhibition in human breast cancer cells. To this end, siRNA screen is employed targeting 779 human kinases in order to determine if downregulation of specific kinases increases the sensitivity of HCC1937 human breast cancer cells to the PI3K inhibitor compound A, which a compound of formula I and of Table 1. […] Following reverse transfection with the siRNA library, cells are treated with either DMSO or 10 μM compound A for 72 hours in a medium containing 2.5% fetal bovine serum (FIGS. 1A and 2) and the alamar blue assay is used to measure cell viability FIG. 1B. […] HCC1937 cells were treated with 10 μM compound A in medium containing 2.5% FBS for 0, 2, 8, or 24 hours. RNA was isolated with Trizol and purified using the RNeasy column (Qiagen). Gene expression from three independent experiments was measured using the Gene titan 3′ microarray. *, p<0.05; **, p<0.01 versus 0 hours, as shown in FIG. 5."}},
  "data": [
    {"smiles": "COc1ccc(Cl)c(Nc2nc3ccccc3nc2NS(=O)(=O)c2cccc(NC(=O)C(C)(C)N)c2)c1", "note": "[Compound A]", "values": [
      {"measurement": "IC50", "setting": "[1]", "value": 0.039, "unit": "µM"},
      {"measurement": "cell number below baseline", "setting": "[2]; 20 μM", "value": "induced cell death"},
      {"measurement": "IC50", "setting": "[2]; Homo sapiens, panel of breast cancer cell lines, 2.5% FBS, read-out: IC50 of cell growth (2D)", "value": "~6", "unit": "µM"},
      {"measurement": "2D growth", "setting": "[2]; panel of breast cancer cell lines, increasing doses", "value": "inhibited the 2D growth of all cell lines in a dose-dependent manner"},
      {"measurement": "IC50", "setting": "[3]", "value": 10, "unit": "µM"}
    ]}
  ]
}
